For experiment [1], the target named is T1, EGFR L858R/T790M/C797S (BaF3-LTC cells) (Homo sapiens, UniProt P00533, C797S/L858R/T790M).
T1 construct: expressed in transfected cells; host or cells: BaF3
In words: EGFR degradation HTRF assay, BaF3-LTC cells. The experiment is classed as cell-based. The settings on record: BaF3-LTC, 16h treatment; for Dmax: maximum percentage of degradation, read-out: LTC Dmax (%); for DC50: read-out: LTC DC50. Summed up: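 EGFR remaining after a 16 h, 37 °C exposure (8 doses, 5-fold steps from 10 uM final, 0.2% DMSO) was quantified by HTRF antibodies in cell lysate. Percent inhibition relative to DMSO control was fitted by four-parameter logistic to give DC50; Dmax denotes maximal degradation.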

The subject of experiment [2] is EGFR Del19/T790M/C797S (BaF3-DTC cells). Description: EGFR degradation HTRF assay, BaF3-DTC cells. The experiment is classed as cell-based. The settings on record: 16h treatment; for DTC Dmax (%): maximum percentage of degradation; for DC50: read-out: DTC DC50. Summed up: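 BaF3 (WT, Del19/T790M/C797S) and HCC827 cells exposed 16 h at 37 °C, 5% CO2 to compounds in 0.2% DMSO medium, 8 doses from 10 uM top, 5-fold steps. Lysates read by HTRF (665/620 nm); degradation % vs DMSO control, DC50 from four-parameter fit, Dmax as maximal degradation.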

T1 sequence (P00533 25-1210 T790M/C797S/L858R): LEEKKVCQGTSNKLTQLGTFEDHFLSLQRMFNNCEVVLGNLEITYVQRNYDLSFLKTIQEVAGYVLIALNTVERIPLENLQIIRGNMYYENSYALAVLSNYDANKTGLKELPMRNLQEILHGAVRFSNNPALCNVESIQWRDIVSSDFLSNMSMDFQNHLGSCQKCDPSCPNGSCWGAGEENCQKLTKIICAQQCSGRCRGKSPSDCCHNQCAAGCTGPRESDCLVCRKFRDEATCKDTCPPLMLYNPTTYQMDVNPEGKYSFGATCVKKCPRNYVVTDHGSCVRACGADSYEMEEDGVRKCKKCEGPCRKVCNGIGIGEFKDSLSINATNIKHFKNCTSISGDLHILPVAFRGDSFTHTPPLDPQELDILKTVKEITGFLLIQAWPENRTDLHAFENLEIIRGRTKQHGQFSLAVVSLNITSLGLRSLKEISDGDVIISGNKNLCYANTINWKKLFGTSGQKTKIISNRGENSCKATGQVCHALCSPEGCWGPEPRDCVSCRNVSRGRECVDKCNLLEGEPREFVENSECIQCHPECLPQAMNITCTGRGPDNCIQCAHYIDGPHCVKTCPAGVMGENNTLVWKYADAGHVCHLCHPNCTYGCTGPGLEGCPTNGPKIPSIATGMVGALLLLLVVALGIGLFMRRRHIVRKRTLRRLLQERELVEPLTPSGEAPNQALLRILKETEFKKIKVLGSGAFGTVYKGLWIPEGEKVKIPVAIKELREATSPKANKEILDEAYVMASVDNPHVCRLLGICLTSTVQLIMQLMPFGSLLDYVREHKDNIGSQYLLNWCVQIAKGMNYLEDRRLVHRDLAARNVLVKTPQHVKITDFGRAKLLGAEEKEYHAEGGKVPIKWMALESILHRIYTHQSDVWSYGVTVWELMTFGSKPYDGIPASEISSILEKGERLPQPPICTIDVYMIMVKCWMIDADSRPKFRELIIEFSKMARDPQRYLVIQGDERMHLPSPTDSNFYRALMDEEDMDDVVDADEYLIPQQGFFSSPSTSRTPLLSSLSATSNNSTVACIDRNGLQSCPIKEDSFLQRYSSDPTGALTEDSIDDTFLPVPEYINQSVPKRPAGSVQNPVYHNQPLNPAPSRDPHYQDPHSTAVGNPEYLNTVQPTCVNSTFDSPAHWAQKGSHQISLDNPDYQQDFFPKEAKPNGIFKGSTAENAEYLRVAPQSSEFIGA

The term Dmax denotes the greatest extent of degradation seen. The DC50 is the concentration giving 50% degradation. On to `CCc1cc(Nc2ncc(Br)c(Nc3ccc4nc(C)ccc4c3P(C)(C)=O)n2)c(OC)cc1N1CCC(N2CCN(CCC3CCN(c4cc(F)c(C5CCC(=O)NC5=O)c(F)c4)CC3)CC2)CC1` (centres unmarked) [Example 312, 3-(4-(4-(2-(4-(1-(4-((5-bromo-4-((5-(dimethylphosphoryl)-2-methylquinolin-6-yl)amino)pyrimidin-2-yl)amino)-2-ethyl-5-methoxyphenyl)piperidin-4-yl)piperazin-1-yl)ethyl)piperidin-1-yl)-2,6-difluorophenyl)piperidine-2,6-dione], for which, in experiment [1], the Dmax came out at 86.1% and the DC50 was 16.1 nM. In experiment [2], the “DTC Dmax (%)” value came out at 88.59% and the half-maximal degradation concentration (DC50) was determined as 8.17 nM.
For `CCc1cc(Nc2ncc(Br)c(Nc3ccc4nc(C(C)C)ccc4c3P(C)(C)=O)n2)c(OC)cc1N1CCC(N2CCN(CCC3CCN(c4cc(F)c(C5CCC(=O)NC5=O)c(F)c4)CC3)CC2)CC1` (centres unmarked) [Example 313, 3-(4-(4-(2-(4-(1-(4-((5-bromo-4-((5-(dimethylphosphoryl)-2-isopropylquinolin-6-yl)amino)pyrimidin-2-yl)amino)-2-ethyl-5-methoxyphenyl)piperidin-4-yl)piperazin-1-yl)ethyl)piperidin-1-yl)-2,6-difluorophenyl)piperidine-2,6-dione], in experiment [1], the Dmax was found to be 87.5% and the DC50 stood at 53.7 nM. Besides, in experiment [2], the “DTC Dmax (%)” value is reported as 90.8% and the DC50 stood at 28.6 nM.
Turning to `CCc1cc(Nc2ncc(Br)c(Nc3ccc4nc(C)ccc4c3P(C)(C)=O)n2)c(OC)cc1N1CCC(N2CCN(CCc3cc(F)c(C4CCC(=O)NC4=O)c(F)c3)CC2)CC1` (centres unmarked) [Example 314, 3-(4-(2-(4-(1-(4-((5-bromo-4-((5-(dimethylphosphoryl)-2-methylquinolin-6-yl)amino)pyrimidin-2-yl)amino)-2-ethyl-5-methoxyphenyl)piperidin-4-yl)piperazin-1-yl)ethyl)-2,6-difluorophenyl)piperidine-2,6-dione], in experiment [1], the Dmax worked out at 87.8% and the DC50 worked out at 6.5 nM. Further, in experiment [2], the “DTC Dmax (%)” value is given as 91.87% and the DC50 was found to be 2.48 nM.
`CCc1cc(Nc2ncc(Br)c(Nc3ccc4nccnc4c3P(C)(C)=O)n2)c(OC)cc1N1CCC(N2CCN(C(=O)C3CN(c4ccc5nn(C6CCC(=O)NC6=O)cc5c4)C3)CC2)CC1` (centres unmarked) [Example 315, 3-(5-(3-(4-(1-(4-((5-bromo-4-((5-(dimethylphosphoryl)quinoxalin-6-yl)amino)pyrimidin-2-yl)amino)-2-ethyl-5-methoxyphenyl)piperidin-4-yl)piperazine-1-carbonyl)azetidin-1-yl)-2H-indazol-2-yl)piperidine-2,6-dione]: in experiment [1], the Dmax was 82% and the DC50 was 12.9 nM. Further, in experiment [2], the “DTC Dmax (%)” value was 89.47% and the DC50 was 4.27 nM.
Consider `CCc1cc(Nc2ncc(Br)c(Nc3ccc4nc(C(C)C)ccc4c3P(C)(C)=O)n2)c(OC)cc1N1CCC(N2CCN(CCc3cc(F)c(C4CCC(=O)NC4=O)c(F)c3)CC2)CC1` (centres unmarked) [Example 316, 3-(4-(2-(4-(1-(4-((5-bromo-4-((5-(dimethylphosphoryl)-2-isopropylquinolin-6-yl)amino)pyrimidin-2-yl)amino)-2-ethyl-5-methoxyphenyl)piperidin-4-yl)piperazin-1-yl)ethyl)-2,6-difluorophenyl)piperidine-2,6-dione], for which, in experiment [1], the maximal degradation (Dmax) stood at 79% and the DC50 was determined as 48.7 nM. In experiment [2], the “DTC Dmax (%)” value was 89.57% and the DC50 turned out to be 9.59 nM.
The corresponding values for `CCc1cc(Nc2ncc(Br)c(Nc3ccc4nc(CO)ccc4c3P(C)(C)=O)n2)c(OC)cc1N1CCC(N2CCN(CCc3cc(F)c(C4CCC(=O)NC4=O)c(F)c3)CC2)CC1` (centres unmarked) [Example 329, 3-(4-(2-(4-(1-(4-((5-bromo-4-((5-(dimethylphosphoryl)-2-(hydroxymethyl)quinolin-6-yl)amino)pyrimidin-2-yl)amino)-2-ethyl-5-methoxyphenyl)piperidin-4-yl)piperazin-1-yl)ethyl)-2,6-difluorophenyl)piperidine-2,6-dione] are 92.4%, 2.9 nM, 96.43% and 1.72 nM.
Turning to `CCc1cc(Nc2ncc(Br)c(Nc3ccc4ncc(F)cc4c3P(C)(C)=O)n2)c(OC)cc1N1CCC(N2CCN(CCc3cc(F)c(C4CCC(=O)NC4=O)c(F)c3)CC2)CC1` (centres unmarked) [Example 336, 3-(4-(2-(4-(1-(4-((5-bromo-4-((5-(dimethylphosphoryl)-3-fluoroquinolin-6-yl)amino)pyrimidin-2-yl)amino)-2-ethyl-5-methoxyphenyl)piperidin-4-yl)piperazin-1-yl)ethyl)-2,6-difluorophenyl)piperidine-2,6-dione], in experiment [1], the Dmax came out at 88.5% and the DC50 is 9.91 nM. Also, in experiment [2], the “DTC Dmax (%)” value came out at 94.98% and the DC50 was 0.984 nM.
The corresponding values for `CCc1cc(Nc2ncc(Br)c(Nc3ccc4nc(C)ccc4c3P(C)(C)=O)n2)c(OC)cc1N1CCC(N2CCN(C(=O)C3CN(c4ccc5c(c4)C(C)(C)C(=O)N5C4CCC(=O)NC4=O)C3)CC2)CC1` (centres unmarked) [Example 409, 3-(5-(3-(4-(1-(4-((5-bromo-4-((5-(dimethylphosphoryl)-2-methylquinolin-6-yl)amino)pyrimidin-2-yl)amino)-2-ethyl-5-methoxyphenyl)piperidin-4-yl)piperazine-1-carbonyl)azetidin-1-yl)-3,3-dimethyl-2-oxoindolin-1-yl)piperidine-2,6-dione] are 96.1%, 1.46 nM, 95.3% and 1.23 nM.
For `CCc1cc(Nc2ncc(Br)c(Nc3ccc4nc(C)ccc4c3P(C)(C)=O)n2)c(OC)cc1N1CCC(N2CCN(CCc3ccc4c(c3)N(C3CCC(=O)NC3=O)C(=O)C4(C)C)CC2)CC1` (centres unmarked) [Example 413, 3-(6-(2-(4-(1-(4-((5-bromo-4-((5-(dimethylphosphoryl)-2-methylquinolin-6-yl)amino)pyrimidin-2-yl)amino)-2-ethyl-5-methoxyphenyl)piperidin-4-yl)piperazin-1-yl)ethyl)-3,3-dimethyl-2-oxoindolin-1-yl)piperidine-2,6-dione], in experiment [1], the Dmax turned out to be 93.2% and the DC50 worked out at 6.11 nM. In experiment [2], the “DTC Dmax (%)” value came to 95.66% and the DC50 was 1.91 nM.
With `CCc1cc(Nc2ncc(Br)c(Nc3ccc4nc(C5CC5)ccc4c3P(C)(C)=O)n2)c(OC)cc1N1CCC(N2CCN(CC3CN(c4ccc5c(c4)CN(C4CCC(=O)NC4=O)C5=O)C3)CC2)CC1` (centres unmarked) [Example 426, 3-(5-(3-((4-(1-(4-((5-bromo-4-((2-cyclopropyl-5-(dimethylphosphoryl)quinolin-6-yl)amino)pyrimidin-2-yl)amino)-2-ethyl-5-methoxyphenyl)piperidin-4-yl)piperazin-1-yl)methyl)azetidin-1-yl)-1-oxoisoindolin-2-yl)piperidine-2,6-dione], in experiment [1], the Dmax turned out to be 89% and the DC50 worked out at 6.67 nM. Further, in experiment [2], the “DTC Dmax (%)” value is given as 91.88% and the DC50 is 4.34 nM.
The corresponding values for `CCc1cc(Nc2ncc(Br)c(Nc3ccc4nc(C5CC5)ccc4c3P(C)(C)=O)n2)c(OC)cc1N1CCC(N2CCN(CCc3cc(F)c(C4CCC(=O)NC4=O)c(F)c3)CC2)CC1` (centres unmarked) [Example 427, 3-(4-(2-(4-(1-(4-((5-bromo-4-((2-cyclopropyl-5-(dimethylphosphoryl)quinolin-6-yl)amino)pyrimidin-2-yl)amino)-2-ethyl-5-methoxyphenyl)piperidin-4-yl)piperazin-1-yl)ethyl)-2,6-difluorophenyl)piperidine-2,6-dione] are 88.3%, 8.61 nM, 93.94% and 7.1 nM.
Consider `CCc1cc(Nc2ncc(Br)c(Nc3ccc4ncn(C)c(=O)c4c3P(C)(C)=O)n2)c(OC)cc1N1CCC(N2CCN(CCc3cc(F)c(C4CCC(=O)NC4=O)c(F)c3)CC2)CC1` (centres unmarked) [Example 428, 3-(4-(2-(4-(1-(4-((5-bromo-4-((5-(dimethylphosphoryl)-3-methyl-4-oxo-3,4-dihydroquinazolin-6-yl)amino)pyrimidin-2-yl)amino)-2-ethyl-5-methoxyphenyl)piperidin-4-yl)piperazin-1-yl)ethyl)-2,6-difluorophenyl)piperidine-2,6-dione], for which, in experiment [1], the Dmax turned out to be 93.5% and the DC50 amounted to 3.67 nM. Also, in experiment [2], the “DTC Dmax (%)” value stood at 95.35% and the DC50 stood at 1.13 nM.
With `CCc1cc(Nc2ncc(Br)c(Nc3ccc4c(=O)n(C)ccc4c3P(C)(C)=O)n2)c(OC)cc1N1CCC(N2CCN(CCc3cc(F)c(C4CCC(=O)NC4=O)c(F)c3)CC2)CC1` (centres unmarked) [Example 429, 3-(4-(2-(4-(1-(4-((5-bromo-4-((5-(dimethylphosphoryl)-2-methyl-1-oxo-1,2-dihydroisoquinolin-6-yl)amino)pyrimidin-2-yl)amino)-2-ethyl-5-methoxyphenyl)piperidin-4-yl)piperazin-1-yl)ethyl)-2,6-difluorophenyl)piperidine-2,6-dione], in experiment [1], the Dmax came to 91.3% and the DC50 turned out to be 5.15 nM. In addition, in experiment [2], the “DTC Dmax (%)” value is on record as 94.9% and the DC50 amounted to 2.33 nM.
Turning to `COc1cc(N2CCC(N3CCN(CCc4cc(F)c(C5CCC(=O)NC5=O)c(F)c4)CC3)CC2)c(C(C)O)cc1Nc1ncc(Br)c(Nc2ccc3nccnc3c2P(C)(C)=O)n1` (centres unmarked) [Example 430, 3-(4-(2-(4-(1-(4-((5-bromo-4-((5-(dimethylphosphoryl)quinoxalin-6-yl)amino)pyrimidin-2-yl)amino)-2-(1-hydroxyethyl)-5-methoxyphenyl)piperidin-4-yl)piperazin-1-yl)ethyl)-2,6-difluorophenyl)piperidine-2,6-dione], in experiment [1], the Dmax came out at 94.5% and the half-maximal degradation concentration (DC50) was determined as 4.5 nM. Further, in experiment [2], the “DTC Dmax (%)” value turned out to be 97.63% and the DC50 is 2.64 nM.

Values taken from US20230265116A1, “DEGRADATION OF (EGFR) BY CONJUGATION OF EGFR INHIBITORS WITH E3 LIGASE LIGAND AND METHODS OF USE” (BEIGENE, LTD., priority 2020, published 2023).
